Reference: ChEMBL document CHEMBL5241055, “Angel or Devil ? - CDK8 as the new drug target” (Eur J Med Chem, 2021)

Assays:
[1] = Antiproliferative activity against HUVEC cells assessed as inhibition of cell growth; format: toxicity, cell-based; details: human
CDK8/Cyclin C = CDK8/Cyclin C (Homo sapiens, UniProt P49336); experiment: Inhibition of CDK8/Cyclin C (unknown origin) using RBER-IRStide as substrate by radiometric assay; format: protein-complex assay
Heat shock protein HSP90 = Heat shock protein HSP90 (Homo sapiens, UniProt P07900+P08238); experiment: Inhibition of HSP90 (unknown origin); format: protein assay
[2] = target: T1, Cyclin-dependent kinase 8 (Homo sapiens, UniProt P49336); experiment: Binding affinity to CDK8 (unknown origin)
[3] = target: T1, Cyclin-dependent kinase 8; experiment: Inhibition of CDK8 (unknown origin)
HCT-116 = experiment: Anticancer activity against human HCT-116 cells assessed as inhibition of cell growth by SRB assay; format: functional, cell-based

CDK8/Cyclin C, sequence (P49336 whole entry): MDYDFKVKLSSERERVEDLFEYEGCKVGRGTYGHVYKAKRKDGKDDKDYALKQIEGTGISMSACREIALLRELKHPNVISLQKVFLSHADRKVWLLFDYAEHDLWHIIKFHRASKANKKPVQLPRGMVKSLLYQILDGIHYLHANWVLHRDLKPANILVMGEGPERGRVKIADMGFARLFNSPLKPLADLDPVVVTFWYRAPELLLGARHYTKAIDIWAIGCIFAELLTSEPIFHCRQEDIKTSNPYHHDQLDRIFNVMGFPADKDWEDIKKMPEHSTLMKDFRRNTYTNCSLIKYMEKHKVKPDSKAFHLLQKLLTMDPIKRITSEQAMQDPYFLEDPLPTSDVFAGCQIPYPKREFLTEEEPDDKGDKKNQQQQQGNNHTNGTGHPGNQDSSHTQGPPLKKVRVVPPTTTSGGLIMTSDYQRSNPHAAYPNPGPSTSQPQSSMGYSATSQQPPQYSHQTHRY
CDK8/Cyclin C, sequence (P24863 whole entry, further chain): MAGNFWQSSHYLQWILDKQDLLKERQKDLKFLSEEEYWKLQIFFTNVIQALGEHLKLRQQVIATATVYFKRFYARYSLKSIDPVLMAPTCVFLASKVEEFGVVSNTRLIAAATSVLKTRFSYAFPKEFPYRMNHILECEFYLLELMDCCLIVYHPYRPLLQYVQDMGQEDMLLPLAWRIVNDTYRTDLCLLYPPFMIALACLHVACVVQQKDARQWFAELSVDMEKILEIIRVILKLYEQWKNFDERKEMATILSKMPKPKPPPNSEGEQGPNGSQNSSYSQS
T1 sequence (P49336 whole entry): as the sequence (P49336 whole entry) above

SMILES	IC50 [1] [nM]	other results
Cc1cnccc1/C=C/[C@@H](C)[C@H]1CC[C@@H]2[C@]1(C)CCC1=CC3=CC[C@@H](N(C)C)C[C@]34CC[C@@]12O4	800	
CN(C)[C@H]1C[C@@]23CC[C@@]4(O2)C(=CC[C@@]2(C)[C@H]4C[C@H](O)[C@@H]2c2ccc4ccncc4c2)C=C3[C@@H](O)[C@@H]1O	1100	
CC1CN(C)CCC1CCC(C)[C@H]1CC[C@@H]2[C@]1(C)CC=C1C=C3C=C[C@@H](N(C)C)C[C@]34CC[C@@]12O4 (stereo partly specified)	1900	
CC1CN(C)CCC1CC[C@@H](C)[C@H]1CC[C@@H]2[C@]1(C)CCC1=CC3=CC[C@@H](N(C)C)C[C@]34CC[C@@]12O4 (stereo partly specified)	450	
N#Cc1ccc2ncnc(NCCc3ccc4ccccc4c3)c2c1		IC50 (CDK8/Cyclin C): 740 nM
CNC(=O)c1ccc2[nH]nc(Cc3ccc4c(cnn4C)c3)c2c1		IC50 (Heat shock protein HSP90): > 10000 nM
CN(C)[C@@H]1C=CC2=CC3=CC[C@]4(C)[C@@H](c5ccc6ccncc6c5)CC[C@H]4[C@@]34CC[C@]2(C1)O4	8	
CN(C)[C@H]1C[C@@]23CC[C@@]4(O2)C(=CC[C@@]2(C)[C@H]4CC(=O)[C@]2(O)c2ccc4ccncc4c2)C=C3[C@@H](O)[C@@H]1O	150	
Cc1cnccc1CC[C@@H](C)[C@H]1CC[C@@H]2[C@]1(C)CCC1=CC3=CC[C@@H](N(C)C)C[C@]34CC[C@@]12O4	350	
Cc1ccc(-n2nc(C(C)(C)C)cc2NC(N)=O)cc1		Kd [2]: 3240 nM
CCCNc1ncnc2ccc(Br)cc12		IC50 (CDK8/Cyclin C): 6100 nM
Cc1cccc(Cc2n[nH]c3cc(O)c(C(=O)N4Cc5ccccc5C4)cc23)c1		IC50 [3]: 15 nM; IC50 (Heat shock protein HSP90): 110 nM
N#Cc1ccc2ncnc(NCCc3ccccc3)c2c1		IC50 (CDK8/Cyclin C): 640 nM
COc1ccc(/C=N/c2ncc(-c3cc4ccccc4oc3=O)o2)cc1O		IC50 (HCT-116): 71800 nM
CN(C)[C@H]1C[C@@]23CC[C@@]4(O2)C(=CC[C@]2(C)[C@@H](c5ccc6ccncc6c5)C(=O)C[C@H]24)C=C3[C@@H](O)[C@@H]1O	19	
